Measured values reported in US8329160B2, “Interferon alpha sequential regimen for treating cancers” (HI-Stem, priority 2007, dated 2012).

Experiments:
[1] = test system: hematopoietic stem cells (HSCs) (lineage-CD117+Sca1+); test: BrdU uptake (proliferation rate) of KLS hematopoietic stem cells in treated mice; format: in vivo
Procedure: Wild-type C57B1/6 mice were treated with IFNα which was obtained as decribed in the literature (Le Bon et al., 2003, Nat. Immunol. 4(10):1009-15). at 0 h and 24 h, respectively with 10×10^3 U/mouse, and were then treated at 36 h with Bromodeoxyuridine (BrdU) at 360 μg/mouse for cell detection. Mice which were only injected with BrdU were used as control. Bone marrow was then taken from the long bones of hindlegs and prepared by standard procedures (Wilson et al., 2004, Genes & Dev 18; 2747-2763). Bone marrow cells were then stained with a cocktail of conjugated antibodies (Bioscience) against mice lineage markers (CD4, CD8, CD11b, Gr1, Ter119, B220), CD117 (c-kit), Sca1 (Ly-6A/E), CD34, CD135, CD48 or CD150). Cells were then fixed. BrdU uptake was analyzed using the BrdU staining kit (BD Biosciences).
Five and six-color flurorescent-activated cell sorting (FACS) analysis (FITC, PE, PE-Cy5, PE-Cy7, APC, APC-Cy7) were performed using a FACS Canto flow cytometer (Becton Dickinson) as described in the literature (Wilson et al., 2004, above). Data were analyzed using FlowJo (Tree Star, Inc.; Ashland, USA software).
Percentages of BrdU positive KLS-HSCs cells (lineage CD117+Sca1+) were determined as a measurement of the proliferation rate of these cells. The same BrdU analyses were performed on subpopulations of HSCs.

[2] = test system: dormant HSCs (KLS CD150+CD48-CD34-); test: BrdU pulse-chase, label-retaining (dormant) long-term HSCs; format: in vivo, mice
Procedure: After a period of permanent BrdU labeling for 10 days, mice were kept without BrdU for 70 days. 14 days before the analysis, the mice were either treated three times with polylC or with PBS. 10 days later (and 70 days after the last BrdU injection) three HSC populations containing an increasing percentage of dormant HSCs were isolated and analysed for the presence of BrdU+label-retaining cells (LRCs), which represent dormant HSCs.
C57B1/6 mice and IFNAR−/− mice were given BrdU (0.8 mg/ml; Sigma) in the drinking water for 10 days. After this BrdU pulse, mice were left for a chase of 10 weeks. Then, mice were twice injected with IFNα at a concentration of 10×10^3 U/mouse each (48 h gap between the 2 injections) or left untreated. BrdU uptake was then analyzed 10 days after the last IFNα injection. After this BrdU pulse-chase experiment in wild-type mice, about 15% of the long-term HSCs (KLS CD150+CD48−CD34−) are still labeled with BrdU (label retaining cells-LRCs). […] This was not the case with long-term HSCs lacking the IFN-receptor (in IFNAR−/− mice) showing that this effect is indeed mediated by Interferon signaling (FIG. 1D).

HSCs [3] = test: Survival of mice under repeated 5FU after polyIC priming (IFN alpha pulse); format: in vivo
Procedure: Wild-type C57B1/6 and IFNAR−/− mice were treated as follows: mice were injected with […] mouse polyIC (Invivogen) twice (polyIC is a double stranded RNA mimetic strongly inducing IFNα/b), the lag time between the two injections being 48 h. PolyIC injections are used in this experiment as IFN alpha “pulse”. Mice that were only treated with 5FU without priming injections of polyIC were used as controls.
5-Fluoro-uracil (5FU) was injected (150 mg/kg, Sigma) at different times after the last polyIC injection: 0 h (same time as last polyIC injection); 24 h, 48 h, 72 h, 5 days and 7 days. The proliferation rate of cells at time of 5FU injection was analyzed by BrdU analysis of KLS cells as described in the above examples. Single 5FU injections were repeated every 7 days. The survival of the mice was monitored for a period of 20 days.

HSCs [4] = test: Mixed bone marrow chimeras (wt / IFNAR-/-), BrdU uptake in LSK cells; format: in vivo, mice; details: IFNα 10×10^3 U/mouse
Procedure: The different mice were treated with IFNα (10×103 U/mouse) in comparison with untreated wt mice (C) as described in Example 3. FIG. 2B represents the BrdU uptake in wt (CD45.1) and IFNAR−/− (CD45.2) LSK cells in the mixed bone marrow chimeras in response to treatment with IFNα.
To investigate whether HSCs respond directly to IFNα in vivo, mixed bone marrow “chimeras” comprising various ratios of wild-type (wt) and IFNAR−/− (IFNRKO) bone marrow cells were treated with IFNα (10×10^3 U/mouse) in comparison with untreated wt mice (C) (FIG. 2A).

polyIC [reference compound]
increase of HSC proliferation rate (BrdU uptake) ([1]; IFNAR-/- mice, polyIC once at 10 μg/g): not seen
percentage of BrdU+-LRCs in HSC populations ([2]; mice treated three times with polyIC vs PBS, 70 days after last BrdU): strongly reduced
effect of polyIC priming on survival under 5FU (HSCs [3]; IFNAR-/- mice): no effect on the survival
survival of mice (lethality by elimination of all HSCs) (HSCs [3]; wild-type C57B1/6, polyIC twice (48 h apart) prior to 5FU 150 mg/kg repeated every 7 days, 20 days monitoring): efficient lethality

O=c1[nH]cc(F)c(=O)[nH]1 [5FU, 5-Fluoro-uracil]
survival of mice under repeated 5FU treatment without polyIC priming (HSCs [3]; 5FU 150 mg/kg every 7 days, 20 days): do survive

IFNα
dose dependence of increase in proliferation ([1]; different doses of IFNα (U/g of mouse)): dose-dependent
proliferation in subpopulations of HSCs (long-term HSCs, short-term HSCs, MPPs) ([1]; wild-type C57B1/6 mice, after IFNα treatment): increase in proliferation in all subpopulations of HSCs
proliferation rate of HSCs (percentage of BrdU positive KLS cells) ([1]; wild-type C57B1/6 mice, IFNα 10×10^3 U/mouse at 0 h and 24 h, BrdU at 36 h, untreated control 23%): 63%
absolute cell numbers of HSCs ([1]; wild-type mice, after IFNα treatment): increase in absolute cell numbers
reduction of LRC+ long-term HSCs (activation of dormant HSCs) ([2]; IFNAR-/- mice (HSCs lacking the IFN-receptor)): not the case
number of LRC+ long-term HSCs (BrdU label retaining cells) ([2]; wild-type mice, 2 injections IFNα 10×10^3 U/mouse 48 h apart, analysed 10 days after last injection, untreated about 15% LRC): dramatically reduced
activation of HSCs in mixed wt / IFNAR-/- bone marrow chimeras (HSCs [4]): direct and an indirect activation
